For 3 compounds, inhibition of growth and IC50 results are on record in ChEMBL document CHEMBL4613211, “Aurone: A biologically attractive scaffold as anticancer agent” (Eur J Med Chem, 2019).

The test system of one experiment is HOP-62. As to the kind of experiment: Growth inhibition of human HOP62 cells at 10 uM after 48 hrs by sulforhodamine B assay relative to control. As to conditions: HOP-62, 48 h, read-out: GI. The experiment is classed as functional.
Another experiment relates to COLO 205. As to the kind of experiment: Growth inhibition of human COLO205 cells at 10 uM after 48 hrs by sulforhodamine B assay relative to control. The experiment is classed as functional. As to conditions: COLO 205, 48 h, read-out: GI. Background: In SRB staining, fixed cells bind dye roughly in proportion to their protein.
The next experiment relates to SF-539. As to the kind of experiment: Growth inhibition of human SF539 cells at 10 uM after 48 hrs by sulforhodamine B assay relative to control. It is filed as functional. The settings on record: SF-539, 48 h, read-out: GI.
The next experiment concerns UACC-257. Nature of the experiment: Growth inhibition of human UACC257 cells at 10 uM after 48 hrs by sulforhodamine B assay relative to control. The experiment is classed as functional. The settings on record: UACC-257, 48 h, read-out: GI.
In another experiment the test system is NCI-H460. As to the kind of experiment: Growth inhibition of human NCI-H460 cells at 10 uM after 48 hrs by sulforhodamine B assay relative to control. The experiment is classed as functional. The settings on record: NCI-H460, 48 h, read-out: GI.
A further experiment relates to UO-31. Nature of the experiment: Growth inhibition of human UO31 cells at 10 uM after 48 hrs by sulforhodamine B assay relative to control. As to conditions: UO-31, 48 h, read-out: GI. The experiment is classed as functional.
The next experiment relates to CAKI-1. Nature of the experiment: Growth inhibition of human CAKI-1 cells at 10 uM after 48 hrs by sulforhodamine B assay relative to control. The settings on record: CAKI-1, 48 h, read-out: GI. The experiment is classed as functional.
The next experiment has as its system HCT-116. As to the kind of experiment: Growth inhibition of human HCT116 cells at 10 uM after 48 hrs by sulforhodamine B assay relative to control. The settings on record: HCT-116, 48 h, read-out: GI. The experiment is classed as functional.
Another experiment concerns SK-MEL-28. Nature of the experiment: Growth inhibition of human SK-MEL-28 cells at 10 uM after 48 hrs by sulforhodamine B assay relative to control. It is filed as functional. The settings on record: SK-MEL-28, 48 h, read-out: GI.
In another experiment the test system is SNB-75. As to the kind of experiment: Growth inhibition of human SNB75 cells at 10 uM after 48 hrs by sulforhodamine B assay relative to control. The experiment is classed as functional. The settings on record: SNB-75, 48 h, read-out: GI.
A further experiment relates to BT-549. Nature of the experiment: Growth inhibition of human BT549 cells at 10 uM after 48 hrs by sulforhodamine B assay relative to control. The experiment is classed as functional. The settings on record: BT-549, 48 h, read-out: GI.
The next experiment deals with DU-145. Nature of the experiment: Growth inhibition of human DU145 cells at 10 uM after 48 hrs by sulforhodamine B assay relative to control. The settings on record: DU-145, 48 h, read-out: GI. It is filed as functional.
For the next experiment, the system named is EKVX. Nature of the experiment: Growth inhibition of human EKVX cells at 10 uM after 48 hrs by sulforhodamine B assay relative to control. The experiment is classed as functional. As to conditions: read-out: GI.
For another experiment, the system named is MDA-MB-435. As to the kind of experiment: Growth inhibition of human MDA-MB-435 cells at 10 uM after 48 hrs by sulforhodamine B assay relative to control. The settings on record: MDA-MB-435, 48 h, read-out: GI. It is filed as functional.
For the next experiment, the system named is A549. As to the kind of experiment: Growth inhibition of human A549/ATCC cells at 10 uM after 48 hrs by sulforhodamine B assay relative to control. The experiment is classed as functional. The settings on record: A549, 48 h, read-out: GI.
Another experiment relates to U-251. Nature of the experiment: Growth inhibition of human U251 cells at 10 uM after 48 hrs by sulforhodamine B assay relative to control. The experiment is classed as functional. As to conditions: U-251, 48 h, read-out: GI.
For another experiment, the system named is UACC-62. As to the kind of experiment: Growth inhibition of human UACC62 cells at 10 uM after 48 hrs by sulforhodamine B assay relative to control. It is filed as functional. The settings on record: UACC-62, 48 h, read-out: GI.
The next experiment relates to RXF 393. As to the kind of experiment: Growth inhibition of human RXF393 cells at 10 uM after 48 hrs by sulforhodamine B assay relative to control. The settings on record: RXF 393, 48 h, read-out: GI. It is filed as functional.
For the next experiment, the system named is MCF7. As to the kind of experiment: Growth inhibition of human MCF7 cells at 10 uM after 48 hrs by sulforhodamine B assay relative to control. As to conditions: MCF7, 48 h, read-out: GI. It is filed as functional.
A further experiment deals with NCI-H522. As to the kind of experiment: Growth inhibition of human NCI-H522 cells at 10 uM after 48 hrs by sulforhodamine B assay relative to control. The experiment is classed as functional. The settings on record: NCI-H522, 48 h, read-out: GI.
In another experiment the test system is SR. As to the kind of experiment: Growth inhibition of human SR cells at 10 uM after 48 hrs by sulforhodamine B assay relative to control. It is filed as functional. The settings on record: read-out: GI.
A further experiment has as its system SK-MEL-2. As to the kind of experiment: Growth inhibition of human SK-MEL-2 cells at 10 uM after 48 hrs by sulforhodamine B assay relative to control. The experiment is classed as functional. The settings on record: SK-MEL-2, 48 h, read-out: GI.
The subject of the next experiment is LOX IMVI. Nature of the experiment: Growth inhibition of human LOXIMVI cells at 10 uM after 48 hrs by sulforhodamine B assay relative to control. It is filed as functional. As to conditions: read-out: GI.
Experiment [1] concerns the target Cyclin-dependent kinase 2 (Homo sapiens, UniProt P24941). Nature of the experiment: Inhibition of CDK2 (unknown origin).

For `COc1ccc(/C=C2\Oc3c(c(OC)c4ccoc4c3CN3CCOCC3)C2=O)cc1`, the inhibition of growth at 10 µM with HOP-62, in the experiment with COLO 205, in the experiment on SF-539, in the experiment on UACC-257, in the experiment with NCI-H460 and in the experiment on UO-31 was 56.4 to 65.2% each time. Further, the inhibition of growth at 10 µM in the experiment on CAKI-1, in the experiment on HCT-116, in the experiment with SK-MEL-28, with SNB-75, in the experiment with BT-549 and with DU-145 was 56.4 to 65.2% throughout. Moreover, the inhibition of growth at 10 µM with EKVX, in the experiment with MDA-MB-435, in the experiment with A549, in the experiment on U-251, in the experiment on UACC-62 and with RXF 393 was 56.4 to 65.2% throughout. The inhibition of growth at 10 µM in the experiment on MCF7, in the experiment on NCI-H522, in the experiment with SR, in the experiment with SK-MEL-2 and with LOX IMVI was 56.4 to 65.2% throughout.
The term IC50 denotes the concentration needed to halve the response being measured. A low value points to inhibition by little substance. On to `COc1cc(/C=C2\Oc3cc4occc4c(OC)c3C2=O)ccc1OCC(=O)Nc1ccccc1`, for which the inhibition of growth at 10 µM in the experiment with HOP-62, in the experiment on COLO 205, in the experiment with SF-539, with UACC-257, in the experiment on NCI-H460 and with UO-31 was 67.1 to 79.6% throughout. Further, the inhibition of growth at 10 µM with CAKI-1, in the experiment on HCT-116, with SK-MEL-28, with SNB-75, in the experiment with BT-549 and in the experiment with DU-145 was 67.1 to 79.6% each time. Besides, the inhibition of growth at 10 µM in the experiment on EKVX, in the experiment on MDA-MB-435, with A549, in the experiment on U-251, in the experiment with UACC-62 and in the experiment with RXF 393 was 67.1 to 79.6% in each case. Further, the inhibition of growth at 10 µM in the experiment on MCF7, in the experiment on NCI-H522, in the experiment with SR, with SK-MEL-2 and with LOX IMVI was 67.1 to 79.6% throughout. It took 1110 nM to reach half-maximal inhibition in experiment [1] (IC50).
`COc1ccc2c(c1)O/C(=C\c1ccc(OCC(=O)Nc3ccccc3)c(OC)c1)C2=O`: the inhibition of growth at 10 µM with HOP-62, in the experiment on COLO 205, in the experiment with SF-539, in the experiment with UACC-257, in the experiment on NCI-H460 and in the experiment with UO-31 was 18.9 to 27.1% throughout. The inhibition of growth at 10 µM with CAKI-1, in the experiment on HCT-116, in the experiment on SK-MEL-28, in the experiment on SNB-75, in the experiment on BT-549 and with DU-145 was 18.9 to 27.1% each time. Moreover, the inhibition of growth at 10 µM in the experiment with EKVX, in the experiment on MDA-MB-435, with A549, with U-251, with UACC-62 and in the experiment on RXF 393 was 18.9 to 27.1% throughout. In addition, the inhibition of growth at 10 µM in the experiment on MCF7, with NCI-H522, in the experiment with SR, with SK-MEL-2 and in the experiment with LOX IMVI was 18.9 to 27.1% in each case.
